We go through 15 compounds from patent US10076519B2 (CYTOKINETICS, INC., priority 2010, dated 2018).

The subject of one assay is rabbit skeletal myofibrils (fast skeletal myofibrils). Kind of assay: Activation of fast skeletal myofibrils (PUMA assay, PK/LDH-coupled ATPase at pCa25). Format: biochemical. As to conditions: AC1.4 determined according to the procedure of Example 39; reported as class symbols. As to the method: Preparation of Fast Skeletal Myofibrils.
Rabbit skeletal myofibrils were prepared based upon the method of Herrmann et al. (Biochem. 32(28):7255-7263(1993). Myofibrils were prepared from rabbit psoas muscle purchased from Pel-Freez Biologicals (Arkansas) within 2 days of ordering, stored on ice. Minced muscle was homogenized in 10 volumes of ice-cold “standard” buffer (50 mM Tris, pH 7.4, 0.1M potassium acetate, 5 mM KCl, 2 mM DTT, 0.2 mM PMSF, 10 μM leupeptin, 5 μM pepstatin, and 0.5 mM sodium azide) containing 5 mM EDTA and 0.5% Triton X-100 using an Omni-Macro homogenizer. Myofibrils were recovered by low speed centrifugation (3000 rpm for 10 minutes) and washed 2 times in the Triton X-100 containing buffer to ensure removal of cellular membrane. Following the Triton washes, myofibrils were washed 3 times in “standard” buffer containing 2 mM magnesium acetate. A final wash in assay buffer (12 mM PIPES, pH 6.8, 60 mM KCl, 1 mM DTT) was performed and brought to 10% sucrose for flash freezing in liquid nitrogen and storage at −80° C.
Activation of Fast Skeletal Myofibrils.
Fast fiber activators were identified by measuring the enzymatic activity of muscle myofibril preparations using the proprietary PUMA™ (see, e.g., U.S. Pat. Nos. 6,410,254, 6,743,599, 7,202,051, and 7,378,254) assay system. Myofibril preparations consisted of rabbit skeletal muscle (approximately 90% fast fibers) that had been mechanically homogenized and washed with a detergent (triton X-100) to remove cellular membranes. This preparation retained all of the sarcomeric components in a native conformation and the enzymatic activity was still regulated by calcium. Compounds were tested using a myofibril suspension and a level of calcium sufficient to increase enzymatic activity of the myofibrils to 25% of their maximal rate (termed pCa25). Enzymatic activity was tracked via a pyruvate kinase and lactate dehydrogenase-coupled enzyme system. This assay regenerates myosin-produced ADP into ATP by oxidizing NADH, producing an absorbance change at 340 nm. The buffering system was 12 mM Pipes, 2 mM MgCl2, 1 mM DTT at pH 6.8 (PM12 buffer).
Using procedures similar to those described herein, utilizing reagents and intermediates commercially available (e.g., Sigma-Aldrich, St. Louis, Mo.) or readily synthesized by one of skill in the art, the compounds in Table 2 were synthesized, characterized and tested. AC1.4 values were determined according to the procedure described in Example 39, and the reported median AC1.4 values are as follows: A=<1 uM; B=1-10 uM; C=10-20 uM; D=>20 uM.
Regarding `CCOC(=O)CCc1ccc(NCC(C)(C)c2ccc(F)cc2)nn1` [ethyl 3-(6-{[2-(4-fluorophenyl)-2-methylpropyl]amino}pyridazin-3-yl)propanoate], the “Mean AC1.4” value is given as “D (D=>20 uM)”.

With `CC(C)(CNc1ccc(-c2ccccc2Cl)nn1)c1ccc(F)cc1` [[6-(2-chlorophenyl)pyridazin-3-yl][2-(4-fluorophenyl)-2-methylpropyl]amine], the “Mean AC1.4” value was “A (A=<1 uM)”.

Consider `CC(C)(CNc1ccc(-c2cccc(C(=O)N3CCNCC3)c2)nn1)c1ccc(F)cc1` [3-(6-{[2-(4-fluorophenyl)-2-methylpropyl]amino}pyridazin-3-yl)phenyl piperazinyl ketone], for which the “Mean AC1.4” value is given as “B (B=1-10 uM)”.

`Cc1ccc(C(C)(C)CNc2ccc(-c3ccc4[nH]nc(N)c4c3)nn2)cc1` [[6-(3-amino(1H-indazol-5-yl))pyridazin-3-yl][2-methyl-2-(4-methylphenyl)propyl]amine]: the “Mean AC1.4” value was “A (A=<1 uM)”.

For the compound `COc1ccc(C2(CNc3ccc(-c4ccc5cn[nH]c5c4)nn3)CCC2)nc1` [(6-(1H-indazol-6-yl)pyridazin-3-yl){[(5-methoxy(2-pyridyl))cyclobutyl]methyl}amine], the “Mean AC1.4” value is “B (B=1-10 uM)”.

Regarding `CC(C)(CNc1ccc(C(=O)N2CCC(C(N)=O)CC2)nn1)c1ccc(F)cc1` [1-[(6-{[2-(4-fluorophenyl)-2-methylpropyl]amino}pyridazin-3-yl)carbonyl]piperidine-4-carboxamide], the “Mean AC1.4” value is on record as “D (D=>20 uM)”.

The same assay, now with this note: median AC1.4 class, procedure of Example 39.
As to `CC(C)OC(=O)c1ccc(F)c(-c2ccc(NC[C@]3(c4ncccc4F)C[C@H](F)C3)nn2)c1` [methylethyl 4-fluoro-3-[6-({[3-fluoro-1-(3-fluoro(2-pyridyl))cyclobutyl]methyl}ami-no)pyridazin-3-yl]benzoate], the “Mean AC1.4” value is on record as “B (B=1-10 uM)”.

On to `NC(=O)c1csc2nc(-c3ccc(NC[C@]4(c5ncccc5F)C[C@H](F)C4)nn3)cn12` [6-[6-({[3-fluoro-1-(3-fluoro(2-pyridyl))cyclobutyl]methyl}ami-no)pyridazin-3-yl]imidazo[2,1-b]1,3-thiazoline-3-carboxamide], for which the “Mean AC1.4” value was “A (A=<1 uM)”.

As to `O=c1[nH][nH]c2nc(-c3ccc(NCC4(c5ncccc5F)CCC4)nn3)sc12` [5-[6-({[(3-fluoro-2-pyridyl)cyclobutyl]methyl}ami-no)pyridazin-3-yl]-3-pyrazolino[3,4-d]1,3-thiazol-3-one], the “Mean AC1.4” value is “D (D=>20 uM)”.

As to `CC(C)n1[nH]c2ccc(-c3ccc(NCC4(c5ncccc5F)CCC4)nn3)cc2c1=O`, the “Mean AC1.4” value is “B (B=1-10 uM)”.

On to `Fc1ccc(C2(Nc3ccc(-c4ccc5[nH]cnc5c4)nn3)CCC2)cc1` [(6-benzimidazol-5-ylpyridazin-3-yl)[(4-fluorophenyl)cyclobutyl]amine], for which the “Mean AC1.4” value is listed as “A (A=<1 uM)”.

Consider `CC(C)(Nc1ccc(-c2cccc(C(N)=O)c2)nn1)c1ccccn1` [3-{6-[(1-methyl-1-(2-pyridyl)ethyl)amino]pyridazin-3-yl}benzamide], for which the “Mean AC1.4” value is given as “D (D=>20 uM)”.

Staying with this assay, now noted: median AC1.4 reported as class; procedure of Example 39.
Take `O=C(O)C1CCc2sc(-c3ccc(NCC4(c5ncccc5F)CCC4)nn3)nc21` (stereo not drawn) [2-[6-({[(3-fluoro-2-pyridyl)cyclobutyl]methyl}ami-no)pyridazin-3-yl]-4,5,6-trihydrocyclopenta[1,2-d]1,3-thiazole-4-carboxylic acid]: the “Mean AC1.4” value is “D (D=>20 uM)”.

As for `O=C(NCc1cnc(-c2ccc(NCC3(c4ncccc4F)CCC3)nn2)s1)[C@@H]1CCN1` [((2S)azetidin-2-yl)-N-({2-[6-({[(3-fluoro(2-pyridyl))cyclobutyl]methyl}ami-no)pyridazin-3-yl](1,3-thiazol-5-yl)}methyl)carboxamide], the “Mean AC1.4” value is on record as “A (A=<1 uM)”.

With `NC(=O)Cc1cnc(-c2ccc(NCC3(c4ncccc4Cl)CCC3)nn2)s1` [2-{2-[6-({[(3-chloro-2-pyridyl)cyclobutyl]methyl}ami-no)pyridazin-3-yl]-1,3-thiazol-5-yl}acetamide], the “Mean AC1.4” value is given as “A (A=<1 uM)”.
